Measured values as given in article PMC10541411 (Nature Communications, 2023).
Ends that are not written are not given here. Me2 = dimethyl-lysine

Key:
[1] = target: 53BP1^TT-CC (tandem Tudor domain of 53BP1, residues 1481-1603, E1549C/E1567C), disulfide-crosslinked homodimer (UniProt Q12888); experiment: AUC; sedimentation velocity of 53BP1^TT-CC (20 uM) without DTT; 20 °C, 20 mM sodium phosphate pH 7.5, 50 mM NaCl
[2] = target: T1, 53BP1^TT-PN (E1549P/D1550N) (Homo sapiens, UniProt Q12888, D1550N/E1549P); experiment: 1H-15N HSQC NMR titration of 15N-labeled 53BP1TT-PN; type: binding; settings: up to fourfold molar excess
T1 construct: The tandem Tudor domain of 53BP1 (53BP1^TT, residues 1481–1603) was purified as previously described; made in house
Experimental: (§1) All NMR data were collected at 25 °C on a 700 MHz Bruker Avance III spectrometer equipped with a cryoprobe. Data were processed and analyzed with NMRPipe[54] and NMRViewJ[55],[56].
(§2) To probe chemical shift perturbations, ^1H-^15N HSQC spectra were acquired on the following samples: 0.2 mM ^15N-labeled 53BP1^TT WT and 53BP1^TT-PN in 25 mM sodium phosphate, pH 7.0, 1.5 mM NaN3, 0.3 mM DSS, 90% H2O/10% D2O, free and incrementally titrated with various non-labeled inhibitors (UNC1078, UNC1118, UNC2170, UNC2991, UNC3474), as well as with H4KC20me2 and p53K382me2 peptides. Chemical shift perturbations (Δδ) were calculated using the Eq. (1):1 Δδ=(ΔN/5)^2+ΔH^2 where ΔN and ΔH are the corresponding differences in ^15N and ^1H chemical shifts between the bound and free forms of 53BP1.

53BP1^TT = target: T2, 53BP1^TT (Homo sapiens, UniProt Q12888); parameters: method as in PMID 25590533; settings: previously identified; read-out: dissociation constant (Kd); cited from earlier work
T2 construct: The tandem Tudor domain of 53BP1 (53BP1^TT, residues 1481–1603) was purified as previously described; made in house; host or cells: E. coli (only for the SAXS sample)

53BP1^TT WT = 53BP1^TT WT (Homo sapiens, UniProt Q12888); experiment: 1H-15N HSQC NMR titration of 15N-labeled wild-type 53BP1TT; type: binding; parameters: The tandem Tudor domain of 53BP1 (53BP1^TT, residues 1481–1603) was purified as previously described; made in house; host or cells: E. coli (only for the SAXS sample); settings: 15N-labeled WT 53BP1TT
Experimental: as §1, §2

53BP1^TT homodimer = target: T3, 53BP1^TT homodimer (Homo sapiens, UniProt Q12888); experiment: 2D longitudinal 1H-15N-heteronuclear ZZ-exchange NMR spectroscopy, protomer interconversion; type: binding; settings: 25 °C, 1 mM 15N-labeled 53BP1TT and 9 mM UNC2170, signals of E1524
T3 construct: The tandem Tudor domain of 53BP1 (53BP1^TT, residues 1481–1603) was purified as previously described; made in house; host or cells: E. coli (only for the SAXS sample)
Experimental: as §1
The protomer interconversion rates in the 53BP1^TT-UNC2970 complex were determined using 2D longitudinal ^1H-^15N-heteronuclear ZZ-exchange NMR spectroscopy[22]–[24]. For these experiments, a series of 11 spectra were acquired with mixing times of 0, 100, 200, 300, 400, 500, 600, 700, 800, 900, and 1000 ms in 25 mM sodium phosphate, pH 7.0, 100 mM NaCl, 1.5 mM NaN3, 0.3 mM DSS, 90% H2O/10% D2O. The interconversion rates were obtained from nonlinear fitting of auto peak and exchange peak intensities accounting for two-site exchange and ^15N R1 relaxation using the equations previously described for a two-state model.

[3] = target: T4, 53BP1^TT (tandem Tudor domain of 53BP1, residues 1481–1603) (Homo sapiens, UniProt Q12888); experiment: Isothermal titration calorimetry (ITC) of small molecules with 53BP1TT; type: binding; settings: 25 °C, 50 mM Tris-HCl pH 7.5, 50 mM NaCl, one-site model; read-out: Kd (apparent, ITC)
T4 construct: The tandem Tudor domain of 53BP1 (53BP1^TT, residues 1481–1603) was purified as previously described; made in house; host or cells: E. coli (only for the SAXS sample)
Experimental: The ITC measurements were performed at 25 °C using a MicroCal iTC200 calorimeter. 53BP1^TT and the small molecules (UNC2991, UNC3351, UNC3474) were in 50 mM Tris-HCl, pH 7.5, 50 mM NaCl. In a typical run, 53BP1^TT was in the reaction cell at a concentration of 150 to 160 μM while the small molecule, in the titration syringe at a concentration of 0.8–2 mM, was delivered as 2 μL injections every 3 min. The titrations were paired with control experiments for heat of dilution. The titration of 53BP1^TT with UNC1118 was performed using a MicroCal VP-ITC calorimeter. ITC data were fitted to a one-site model using a Levenberg-Marquardt non-linear regression algorithm programmed in the Origin 7.0 software.
Supplementary Figure 1 | Interaction of 53BP1TT with small molecules probed using isothermal titration calorimetry (ITC) and small-angle X-ray scattering (SAXS). a, ITC of the interaction of UNC2991, UNC3351 and UNC3474 with 53BP1TT. Raw titration data and integrated heat measurements are shown. Indicated apparent Kds with associated standard deviations were determined by nonlinear least-squares analysis.
1.33 and 2 mg/mL with an exposure time of 0.5 s, without and with 10-fold molar excess of UNC1118 or UNC3474. The error bars in the scattering curves were generated using PRIMUS in the data analysis software ATSAS 2.4.2 and represent mean ± standard deviation calculated from signal intensity scaling and merging for the three different 53BP1TT concentrations. The Guinier plots, dimensionless Kratky plots and pair distance distribution functions derived from the SAXS data are shown. Also shown are the crystal structures of 53BP1TT and 53BP1TT-UNC3474 overlaid to the corresponding SAXS-based ab initio molecular envelopes generated using GASBOR 2.3i. c, Interaction of UNC1118 with 53BP1TT characterized using ITC (left) and NMR spectroscopy (right).
For the ITC, raw titration data and integrated heat measurements are shown. The indicated Kd with associated standard deviation was determined by nonlinear least-squares analysis.
(1 picture or pasted object on this page, not shown here)

T1 sequence (Q12888 1481-1603 E1549P/D1550N): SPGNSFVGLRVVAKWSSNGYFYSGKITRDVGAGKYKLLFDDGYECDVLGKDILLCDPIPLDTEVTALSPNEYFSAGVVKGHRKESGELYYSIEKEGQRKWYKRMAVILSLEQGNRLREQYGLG
Sequence of 53BP1^TT WT (Q12888 1481-1603): as the sequence (Q12888 1481-1603 E1549P/D1550N) above, with P69E, N70D counted along it
T3 sequence (Q12888 1481-1603): as the sequence (Q12888 1481-1603 E1549P/D1550N) above, with P69E, N70D counted along it
T4 sequence (Q12888 1481-1603): as the sequence (Q12888 1481-1603 E1549P/D1550N) above, with P69E, N70D counted along it
T2 sequence (Q12888 1481-1603): as the sequence (Q12888 1481-1603 E1549P/D1550N) above, with P69E, N70D counted along it

| Molecule | interaction with 53BP1TT-PN (1H-15N HSQC titration) [2] | Kd [3] | changes in signal positions in the 1H-15N HSQC spectrum of 53BP1TT upon titration (53BP1^TT WT) | also measured |
| --- | --- | --- | --- | --- |
| 53BP1^TT-CC (tandem Tudor domain of 53BP1, residues 1481-1603, E1549C/E1567C), disulfide-crosslinked homodimer (from UniProt Q12888 1481-1603) (domain or fragment) | – | – | – | stoichiometry N [1]: 2 |
| CC(C)(C)NCCCNC(=O)c1cccc(Br)c1 [UNC2170] | did not interact | – | slow exchange on the chemical shift time scale | Kd (53BP1^TT): 22 ± 2.5 µM; interconversion rate kAB between the two protomers in the 53BP1TT dimer (53BP1^TT homodimer): 1.7 s⁻¹; interconversion rate kBA between the two protomers in the 53BP1TT dimer (53BP1^TT homodimer): 1.2 s⁻¹ |
| CC(C)(C)NCCCNC(=O)c1cccc(I)c1 [UNC2991] | did not interact | 3.9 ± 0.4 µM | slow exchange on the chemical shift time scale | – |

Now from value to molecule, other results behind:

| interaction with 53BP1TT-PN (1H-15N HSQC titration) [2] | Kd [3] | Molecule | changes in signal positions in the 1H-15N HSQC spectrum of 53BP1TT upon titration (53BP1^TT WT) | also measured |
| --- | --- | --- | --- | --- |
| – | 6.8 ± 0.4 µM | CC(C)(C)NCCCNC(=O)c1cccc(C(F)(F)F)c1 [UNC3351] | slow exchange on the chemical shift time scale | – |
| bound | – | H4KC20me2: dimethylated histone H4 peptide (residues 12–25) with chemically installed dimethyl-lysine analog (KGGAKRHRCVLRDN; dimethyl-lysine analog at position 20 (KC20me2), installed chemically) [reference compound] | – | – |
| bound | – | p53K382me2: dimethylated p53 peptide (residues 377–386) purchased from GenScript (TSRHKK(Me2)LMFK) [reference compound] | – | – |
